{
  "source": "patent US11098006B2",
  "about": "“Lipids and complexes for the delivery of biologically-active material to cells” (RYBOQUIN COMPANY LTD, priority 2016, dated 2021)",
  "key": {"[1]": {"system": "many cell types", "conditions": "cited from earlier work"}, "[2]": {"conditions": "cited from earlier work"}, "[3]": {"system": "COS.7 cells", "conditions": "cited from earlier work"}, "[4]": {"system": "NIH3T3 murine fibroblasts", "experiment": "In vitro transfection with LPD formulations, luciferase reporter assay", "type": "cell-based", "conditions": "NIH3T3 cells; LPD with peptide ME27 and plasmid pCI-Luc; FIG. 1", "procedure": "(§1) Cells tested included 1HAEo-human airway epithelial cells, NIH3T3 murine fibroblasts, and Neuro2A murine neuroblastoma cells. Cells were seeded into 96-well plates at approximately 2×10^4 cells per well, then incubated overnight at 37° C. in complete growth medium. The following day, lipopolyplex (LPD) formulations were prepared essentially as described previously (Hart et al., 1998), by mixing the components in the following order: 50 μl of lipid (L) at 80 μg/ml in OptiMEM, 70 μl of peptide (P) at 110 μg/ml in OptiMEM and 50 μl of plasmid pCI-Luc (D) at 40 μg/ml in OptiMEM corresponding to a weight ratio of 2:4:1, respectively. […] The cells were incubated with the complexes for 4 h at 37° C. before replacing with fresh media for 24 h, after which reporter gene expression was analyzed by luciferase assay (Promega, Madison, Wis., USA). […]\n(§2) Cells were washed once with PBS before the addition of 20 μl of 1× Reporter Lysis Buffer (Promega, Madison, Wis., USA) to the cells for 20 min at 4° C. before freezing at −80° C. for at least 30 min, followed by thawing at room temperature. Then the luciferase activity was measured during 10 seconds using the Luciferase Assay System (Promega, Madison, Wis., USA) and an Optima Fluostar plate reader (BMG Labtech). […] In vitro luciferase activity was expressed as Relative Light Units (RLU) per milligram of protein (RLU/mg)."}, "[5]": {"experiment": "Transmission electron microscope imaging of LPD particles", "type": "physicochemical", "conditions": "peptide ME27; weight ratio 0.75:4:1 (L:P:D); FIG. 5 and FIG. 6", "excerpt": "Transmission Electon Microscope images of LPD particles comprising FMM30 with peptide ME27 at a weight ratio of 0.75:4:1 (L:P:D) is shown in FIG. 5 (FMM30-PD-0.75) and lipids FMM30/DOPE at the same weight ratio is shown in FIG. 6 (FMM30/DOPE-PD 0.75)."}, "[6]": {"experiment": "Size of LPD nanoparticles by dynamic light scattering", "type": "physicochemical", "conditions": "peptide ME27; weight ratio 0.75:4:1 (L:P:D); FIG. 7", "procedure": "The size of LPD nanoparticles containing peptides ME27 with lipids FMM30 or FMM30/DPE were determined at different weight ratios of liposome to DNA (w/w) by dynamic light scattering using a NanoZS Zetasizer (Malvern)."}, "[7]": {"system": "1HAEo- human airway epithelial cells", "experiment": "In vitro transfection with LPD formulations, luciferase reporter assay", "type": "cell-based", "conditions": "1HAEo- cells; LPD with peptide ME27 and plasmid pCI-Luc; FIG. 2", "procedure": "as §1, §2"}},
  "data": [
    {"smiles": "CCCCCCCC/C=C\\CCCCCCCCOCC(C[N+](C)(C)C)OCCCCCCCC/C=C\\CCCCCCCC.[Cl-]", "note": "(stereo not drawn) [DOTMA 1]", "values": [
      {"measurement": "levels of transfection in vitro", "setting": "[1]", "result": "comparable levels of transfection"},
      {"measurement": "transfection activities in vivo", "setting": "[2]", "result": "exhibited higher transfection activities"}
    ]},
    {"smiles": "CCCCCCCCCCCCCCOCC(C[N+](C)(C)CCO)OCCCCCCCCCCCCCC.[Br-]", "note": "(stereo not drawn) [DMRIE 7]", "values": [
      {"measurement": "transfection activity of hydroxyalkyl cytofectins", "setting": "[3]; compared with DOTMA 1", "result": "one of the more efficient lipids"}
    ]},
    {"smiles": "CCCCCCCC/C=C\\CCCCCCCC(=O)OCC(C[N+](C)(C)C)OC(=O)CCCCCCC/C=C\\CCCCCCCC", "note": "(stereo not drawn) [DOTAP 4]", "values": [
      {"measurement": "levels of transfection in vitro", "setting": "[1]", "result": "comparable levels of transfection"}
    ]},
    {"smiles": "CCCCCCCC/C=C\\CCCCCCCCOCC(C[N+](C)(C)CCO)OCCCCCCCC/C=C\\CCCCCCCC.[Br-]", "note": "(stereo not drawn) [DORIE 6]", "values": [
      {"measurement": "transfection efficacies in COS.7 cells", "setting": "[3]; co-formulation with helper lipid DOPE 2, compared to lipids with hydroxypropyl-hydroxypentyl groups", "result": "higher transfection efficacies"}
    ]},
    {"smiles": "CCCCCCCC/C=C\\CCCCCCCCOCC(C[N+](C)(C)CCOCCOCCOCCOC(=O)CCCCCCC/C=C\\CCCCCCCC)OCCCCCCCC/C=C\\CCCCCCCC", "note": "(stereo not drawn) [FMM30, (9Z)—N-(2,3-bis((9Z)-octadecenyloxy)propyl)-N,N-dimethyl-13-oxo-3,6,9,12-tetraoxatriacont-21-en-1-aminium bromide]", "values": [
      {"measurement": "transfection levels", "setting": "[4]", "result": "far higher than the bi-chain lipid CH300"},
      {"measurement": "particle size and shape in TEM images", "setting": "[5]", "result": "quite similar sizes with a combination of shapes including rods and spheres"},
      {"measurement": "size of LPD nanoparticles", "setting": "[6]", "result": "approximately 80 nm"},
      {"measurement": "transfection levels", "setting": "[7]", "result": "far higher than the bi-chain lipid CH300"}
    ]}
  ]
}
